This assay addresses recombinant human BACE-1 protein (Homo sapiens (Human), UniProt P56817). As to the kind of experiment: Measurement of Inhibition of β-Secretase Activity. The following applies: 3 h at 30° C., pH5.0, read-out: IC50 value. The format is biochemical. The method, then:
Zero point five μL of the test compounds (dissolved in N,N′-dimethylsulfoxide) were incubated with 48.5 μL of the fluorescence-quenched peptide substrate solution (Biotin-XSEVNLDAEFRHDSGC-Eu:X=ε-amino-n-capronic acid, Eu=Europium cryptate) and 1 μL of recombinant human BACE-1 protein (R&D systems) for 3 h at 30° C. in the 96 well half-area plate (black color plate, Costar). The substrate peptide was synthesized by reacting with Biotin-XSEVNLDAEFRHDSGC (Peptide Institute) and Cryptate TBPCOOH mono SMP (CIS bio international). […] The enzymatic reaction was performed in sodium acetate buffer (50 mM sodium acetate (pH5.0), 0.008% Triton X-100). After the reaction, a 50 μL of 8.0 μg/mL Streptavidin-XL665 (CIS bio international) dissolved in phosphate buffer (150 mM K2HPO4—KH2PO4 (pH 7.0), 0.008% Triton X-100, 0.8 M KF) was add to each well and incubated for 1 h at 30° C.

Setting [1] is: fluorescence-quenched peptide substrate 18 nM, BACE-1 7.4 nM.
[2] abbreviates: recombinant human BACE-1 protein.

pIC50: −log10 of the molar value. Like-named read-outs stand apart in the source and are kept apart here.

recombinant human BACE-1 protein, sequence (P56817 46-501): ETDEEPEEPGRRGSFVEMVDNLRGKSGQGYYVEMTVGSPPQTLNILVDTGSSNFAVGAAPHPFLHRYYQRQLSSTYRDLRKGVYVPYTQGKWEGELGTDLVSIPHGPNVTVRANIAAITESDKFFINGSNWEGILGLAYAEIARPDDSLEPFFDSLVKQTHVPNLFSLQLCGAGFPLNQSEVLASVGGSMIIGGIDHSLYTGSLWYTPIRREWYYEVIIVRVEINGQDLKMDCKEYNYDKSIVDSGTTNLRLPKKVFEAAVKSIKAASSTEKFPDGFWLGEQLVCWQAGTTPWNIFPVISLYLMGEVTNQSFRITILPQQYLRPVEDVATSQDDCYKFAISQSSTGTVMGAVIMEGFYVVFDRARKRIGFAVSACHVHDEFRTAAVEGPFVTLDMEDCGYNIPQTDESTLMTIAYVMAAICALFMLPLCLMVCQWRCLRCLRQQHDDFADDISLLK

In the case of `CC1(c2cccc(NC(=O)c3ncc(C(F)(F)F)cc3Cl)c2)CCSC(N)=N1` (stereo not shown) [Compound 482], under setting [1], the pIC50 was more than 4.00.

With `CC1(c2cc(Br)cc(NC(=O)c3cccs3)c2)CCSC(N)=N1` (stereo not shown) [Compound 490], the pIC50 under setting [2] was 5.29.

`Cc1noc(C)c1C(=O)Nc1cccc(C2(C)CCSC(N)=N2)c1` (stereo not shown) [Compound 491]: the pIC50 under setting [1] was more than 4.00.

For the compound `CC1(c2ccc(F)c(NS(=O)(=O)c3ccc(Cl)cc3)c2)CCSC(N)=N1` (stereo not shown) [Compound 493], the pIC50 under setting [1] was more than 4.00.

`Cn1cccc1C(=O)Nc1ccc(F)c(C2(C)CCSC(N)=N2)c1` (stereo not shown) [Compound 497]: under setting [1], the pIC50 was more than 4.00.

In the case of `CC1(c2cccc(OCC(=O)Nc3ccc4c(c3)OCCO4)c2)CCSC(N)=N1` (stereo not shown) [Compound 509], the negative logarithm of the IC50 (pIC50) under setting [1] was more than 4.00.

Turning to `CCOc1ccc(C(=O)Nc2cccc(C3(C)CCSC(N)=N3)c2)nc1` (stereo not shown) [Compound 516], the pIC50 under setting [1] is more than 4.00.

For the compound `CC1(c2cccc(NC(=O)c3ccc(C#N)cc3F)c2)CCSC(N)=N1` (stereo not shown) [Compound 517], the pIC50 under setting [1] is more than 4.00.

Take `CC1(c2ccc(F)c(NC(=O)c3ccc(Cl)nc3)c2)CCSC(N)=N1` (stereo not shown) [Compound 527]: the negative logarithm of the IC50 (pIC50) under setting [1] was more than 4.00.

As to `CCOc1cc(Cl)cnc1C(=O)Nc1cccc(C2(C)CCSC(N)=N2)c1` (stereo not shown) [Compound 532], under setting [1], the pIC50 was more than 4.00.

Consider `CC1(c2cccc(C(=O)Nc3ccc(Cl)cn3)c2)CCSC(N)=N1` (stereo not shown) [Compound 542], for which, under setting [1], the pIC50 was more than 4.00.

For the compound `CC1(c2cc(NC(=O)c3ccc(Cl)cc3Cl)ccc2F)CCSC(N)=N1` (stereo not shown) [Compound 544], under setting [1], the pIC50 is more than 4.00.

Consider `Cc1ccc(C(=O)Nc2cccc(C3(C)CCSC(N)=N3)c2)cc1` (stereo not shown) [Compound 550], for which the pIC50 under setting [1] was more than 4.00.

In the case of `CC1(c2ccc(F)c(C(=O)NCc3ccccc3)c2)CCSC(N)=N1` (stereo not shown) [Compound 558], the pIC50 under setting [1] is more than 4.00.

As for `CC1(c2cc(NC(=O)c3ccc4cc[nH]c4c3)ccc2F)CCSC(N)=N1` (stereo not shown) [Compound 560], the pIC50 under setting [1] is more than 4.00.

On to `CC1(c2cccc(NC(=O)c3cccc(Cl)c3)c2)CCSC(N)=N1` (stereo not shown) [Compound 568], for which the negative logarithm of the IC50 (pIC50) under setting [1] is more than 4.00.

Consider `Cc1ccc(C(=O)Nc2cccc(C3(C)CCSC(N)=N3)c2)c(O)c1` (stereo not shown) [Compound 569], for which the pIC50 under setting [1] is more than 4.00.

With `CC1(c2cccc(NC(=O)c3c(O)cccc3F)c2)CCSC(N)=N1` (stereo not shown) [Compound 575], the pIC50 under setting [1] is more than 4.00.

On to `Cc1cc(C(=O)Nc2cccc(C3(C)CCSC(N)=N3)c2)c(C)o1` (stereo not shown) [Compound 578], for which, under setting [1], the pIC50 was more than 4.00.

For the compound `Cn1c(C(=O)Nc2ccc(F)c(C3(C)CCSC(N)=N3)c2)cc2ccccc21` (stereo not shown) [Compound 586], under setting [1], the negative-log IC50 (pIC50) was more than 4.00.

`CC1(c2cccc(OCC(=O)Nc3ccc(C(=O)c4ccccc4)cc3)c2)CCSC(N)=N1` (stereo not shown) [Compound 591]: the pIC50 under setting [1] was more than 4.00.

Take `Cc1cc(C(=O)Nc2cc(C3(C)CCSC(N)=N3)ccc2F)c(C)o1` (stereo not shown) [Compound 607]: the pIC50 under setting [1] was more than 4.00.

For `CC1(c2cccc(NC(=O)c3ccc(NCc4ccccc4)cn3)c2)CCSC(N)=N1` (stereo not shown) [Compound 608], the pIC50 under setting [1] was more than 4.00.

As for `CC1(c2cccc(NC(=O)CCNC(=O)c3ccc(Cl)cc3)c2)CCSC(N)=N1` (stereo not shown) [Compound 613], under setting [1], the pIC50 is more than 4.00.

For the compound `CC1(c2cccc(C=Cc3ccc(Cl)cn3)c2)CCSC(N)=N1` (stereo not shown) [Compound 616], the pIC50 under setting [2] is 5.23.

`Cc1ccc(C(=O)Nc2cccc(C3(C)CCSC(N)=N3)c2)nn1` (stereo not shown) [Compound 618]: the pIC50 under setting [1] was more than 4.00.

Consider `C/C(=N\OCc1ccccc1)c1cccc(C2(C)CCSC(N)=N2)c1` (stereo not shown) [Compound 620], for which the pIC50 under setting [1] was more than 4.00.

For `Cc1ccc2[nH]c(C(=O)Nc3cccc(C4(C)CCSC(N)=N4)c3)cc2c1` (stereo not shown) [Compound 629], under setting [1], the pIC50 was more than 4.00.

For `CC1(c2ccc(F)c(NC(=O)c3ccccn3)c2)CCSC(N)=N1` (stereo not shown) [Compound 637], the pIC50 under setting [1] is more than 4.00.

For the compound `Cc1ccc(NC(=O)COc2cccc(C3(C)CCSC(N)=N3)c2)cc1O` (stereo not shown) [Compound 639], the pIC50 under setting [2] is 5.10.

On to `CC1(c2cccc(NC(=O)c3ncc(Cl)cc3Cl)c2)CCSC(N)=N1` (stereo not shown) [Compound 646], for which the pIC50 under setting [1] was more than 4.00.

Take `CC1(c2cccc(NC(=O)c3ccc4nonc4c3)c2)CCSC(N)=N1` (stereo not shown) [Compound 652]: the pIC50 under setting [1] is more than 4.00.

For `COCc1cc(NC(=O)c2ccc(C(F)(F)F)cc2)cc(C2(C)CCSC(N)=N2)c1` (stereo not shown) [Compound 660], under setting [2], the pIC50 is 5.34.

In the case of `CCn1nc(C)cc1C(=O)Nc1ccc(F)c(C2(C)CCSC(N)=N2)c1` (stereo not shown) [Compound 661], under setting [1], the pIC50 is more than 4.00.

`COCc1cc(NC(=O)c2ccc(OC(F)(F)F)cc2)cc(C2(C)CCSC(N)=N2)c1` (stereo not shown) [Compound 664]: under setting [2], the pIC50 was 5.44.

As to `CC1(c2cccc(C(=O)Nc3nncs3)c2)CCSC(N)=N1` (stereo not shown) [Compound 671], the negative logarithm of the IC50 (pIC50) under setting [1] is more than 4.00.

For `CC1(c2cccc(CCC(=O)Nc3ccc(F)cc3)c2)CCSC(N)=N1` (stereo not shown) [Compound 677], the pIC50 under setting [1] is more than 4.00.

As for `CC1(c2cccc(Nc3nc4ccccc4[nH]3)c2)CCSC(N)=N1` (stereo not shown) [Compound 681], the pIC50 under setting [1] was more than 4.00.

On to `CC1(c2cccc(NC(=O)c3cccc(I)c3)c2)CCSC(N)=N1` (stereo not shown) [Compound 691], for which the pIC50 under setting [1] was more than 4.00.

As for `CC1(c2cc(Cl)cc(NC(=O)c3ccc(Br)cc3)c2)CCSC(N)=N1` (stereo not shown) [Compound 698], under setting [2], the pIC50 is 6.78.

As to `CC1(c2cccc(C(=O)Nc3nc4ccccc4s3)c2)CCSC(N)=N1` (stereo not shown) [Compound 708], the negative-log IC50 (pIC50) under setting [1] is more than 4.00.

On to `CC1(c2cccc(NC(=O)c3ccccc3C#N)c2)CCSC(N)=N1` (stereo not shown) [Compound 711], for which the pIC50 under setting [1] was more than 4.00.

With `Cc1ccc(CO/N=C/c2cccc(C3(C)CCSC(N)=N3)c2)cc1` (stereo not shown) [Compound 719], the pIC50 under setting [1] was more than 4.00.

`CC1(c2cccc(OCC(=O)Nc3ccc(Cl)c4ccccc34)c2)CCSC(N)=N1` (stereo not shown) [Compound 723]: under setting [1], the pIC50 was more than 4.00.

In the case of `CC1(c2cc(NC(=O)c3ccco3)cc(-c3ccc(Cl)cc3)c2)CCSC(N)=N1` (stereo not shown) [Compound 725], the pIC50 under setting [1] is more than 4.00.

Consider `CC1(c2cccc(NC(=O)c3ccc([N+](=O)[O-])cn3)c2)CCSC(N)=N1` (stereo not shown) [Compound 730], for which the pIC50 under setting [1] is more than 4.00.

Regarding `CC1=NC(C)(c2cccc(CCC(=O)Nc3ccccc3)c2)CCS1` (stereo not shown) [Compound 732], the pIC50 under setting [1] was more than 4.00.

With `CC1(c2cc(Cl)cc(NC(=O)c3ccc(Cl)cn3)c2)CCSC(N)=N1` (stereo not shown) [Compound 739], the pIC50 under setting [2] was 7.31.

Regarding `Cc1ccc(NC(=O)COc2cccc(C3(C)CCSC(N)=N3)c2)cc1` (stereo not shown) [Compound 746], the negative-log IC50 (pIC50) under setting [1] is more than 4.00.

Take `CC1(c2cccc(NCc3ccc(Cl)cc3)c2)CCSC(N)=N1` (stereo not shown) [Compound 753]: the pIC50 under setting [2] is 5.25.

With `CC1(c2cccc(NC(=O)c3ccc(-c4ccccc4)cc3)c2)CCSC(N)=N1` (stereo not shown) [Compound 761], the pIC50 under setting [1] was more than 4.00.

For the compound `CC1(c2cccc(NC(=O)c3cc([N+](=O)[O-])ccn3)c2)CCSC(N)=N1` (stereo not shown) [Compound 770], the pIC50 under setting [1] was more than 4.00.

`CC1(c2cccc(NC(=O)c3cc(Cl)cc(Cl)c3)c2)CCSC(N)=N1` (stereo not shown) [Compound 775]: under setting [1], the negative-log IC50 (pIC50) was more than 4.00.

On to `COc1ccc(C(=O)Nc2cccc(C3(C)CCSC(N)=N3)c2)nc1` (stereo not shown) [Compound 781], for which, under setting [1], the pIC50 was more than 4.00.

On to `CC1(c2cc(Br)cc(NC(=O)c3ccco3)c2)CCSC(N)=N1` (stereo not shown) [Compound 786], for which the pIC50 under setting [2] was 6.81.

On to `CCn1c2ccccc2c2cc(NC(=O)COc3cccc(C4(C)CCSC(N)=N4)c3)ccc21` (stereo not shown) [Compound 787], for which the pIC50 under setting [1] was more than 4.00.

On to `CC1(c2cccc(NC(=O)c3cc(CCCO)on3)c2)CCSC(N)=N1` (stereo not shown) [Compound 788], for which the pIC50 under setting [1] is more than 4.00.

As to `COc1ccc(NC(=O)/C=C/c2cccc(C3(C)CCSC(N)=N3)c2)cc1` (stereo not shown) [Compound 790], under setting [1], the pIC50 was more than 4.00.

Turning to `CC1(c2cccc(NC(=O)c3cncs3)c2)CCSC(N)=N1` (stereo not shown) [Compound 791], under setting [1], the pIC50 is more than 4.00.

`CC(=O)Nc1ccc(C(=O)Nc2cccc(C3(C)CCSC(N)=N3)c2)nc1` (stereo not shown) [Compound 792]: under setting [1], the pIC50 is more than 4.00.

Turning to `CC1(c2cccc(NC(=O)c3ccc4c(c3)OCO4)c2)CCSC(N)=N1` (stereo not shown) [Compound 796], the pIC50 under setting [1] is more than 4.00.

For `CC1(c2cccc(NC(=O)c3ccc(NCc4ccccn4)cn3)c2)CCSC(N)=N1` (stereo not shown) [Compound 797], the pIC50 under setting [1] is more than 4.00.

Turning to `CC1(c2ccc(F)c(NC(=O)c3ccc4ccccc4n3)c2)CCSC(N)=N1` (stereo not shown) [Compound 799], under setting [2], the negative-log IC50 (pIC50) was 5.17.

As to `Cc1cc(Cl)cnc1C(=O)Nc1cccc(C2(C)CCSC(N)=N2)c1` (stereo not shown) [Compound 802], the pIC50 under setting [1] is more than 4.00.

Regarding `CCCCNC(=O)c1ccc(C2(C)CCSC(N)=N2)s1` (stereo not shown) [Compound 803], the pIC50 under setting [1] was more than 4.00.

Turning to `CC1(c2cccc(NC(=O)CCc3ccccc3)c2)CCSC(N)=N1` (stereo not shown) [Compound 808], under setting [1], the pIC50 was more than 4.00.

With `CCOc1ccc(NC(=O)COc2cccc(C3(C)CCSC(N)=N3)c2)cc1` (stereo not shown) [Compound 809], the pIC50 under setting [1] is more than 4.00.

Regarding `CC1(c2cccc(NC(=O)CCNC(=O)c3ccc(F)cn3)c2)CCSC(N)=N1` (stereo not shown) [Compound 816], the pIC50 under setting [1] was more than 4.00.

For `CC1(c2cccc(NC(=O)c3ccc(C#N)nc3)c2)CCSC(N)=N1` (stereo not shown) [Compound 819], under setting [1], the pIC50 was more than 4.00.

In the case of `CC1(c2cc(NC(=O)c3ncc(Cl)cc3N)ccc2F)CCSC(N)=N1` (stereo not shown) [Compound 820], the pIC50 under setting [1] was more than 4.00.

On to `CC1(c2cc(Cl)cc(NC(=O)c3ccco3)c2)CCSC(N)=N1` (stereo not shown) [Compound 822], for which the pIC50 under setting [2] was 6.61.

For the compound `CC1(c2cccc(OCC(=O)Nc3nccs3)c2)CCSC(N)=N1` (stereo not shown) [Compound 824], under setting [1], the pIC50 is more than 4.00.

In the case of `CC1(c2cc(Cl)cc(NC(=O)c3cc4ccccc4s3)c2)CCSC(N)=N1` (stereo not shown) [Compound 832], under setting [2], the pIC50 was 6.65.

By pIC50 is commonly meant the IC50 on a negative log10 scale, so that one unit is a factor of ten.
